For 13 compounds, EC50 and IC50 results are on record in patent US20260364080A1, “PYRAZOLO-PYRIMIDINONE COMPOUNDS FOR USE IN METHODS OF INHIBITING WEE1 A KINASE” (Acrivon Therapeutics, Inc., priority 2023, published 2026).

Test [1] concerns the target T1, Myt1 kinase (CDK1 Thr14 phosphorylation in ACHN renal cell carcinoma cells) (Homo sapiens, UniProt Q99640).
T1 construct: pCDK1 Thr14 AlphaLISA read-out
T1 sequence (Q99640 1-499): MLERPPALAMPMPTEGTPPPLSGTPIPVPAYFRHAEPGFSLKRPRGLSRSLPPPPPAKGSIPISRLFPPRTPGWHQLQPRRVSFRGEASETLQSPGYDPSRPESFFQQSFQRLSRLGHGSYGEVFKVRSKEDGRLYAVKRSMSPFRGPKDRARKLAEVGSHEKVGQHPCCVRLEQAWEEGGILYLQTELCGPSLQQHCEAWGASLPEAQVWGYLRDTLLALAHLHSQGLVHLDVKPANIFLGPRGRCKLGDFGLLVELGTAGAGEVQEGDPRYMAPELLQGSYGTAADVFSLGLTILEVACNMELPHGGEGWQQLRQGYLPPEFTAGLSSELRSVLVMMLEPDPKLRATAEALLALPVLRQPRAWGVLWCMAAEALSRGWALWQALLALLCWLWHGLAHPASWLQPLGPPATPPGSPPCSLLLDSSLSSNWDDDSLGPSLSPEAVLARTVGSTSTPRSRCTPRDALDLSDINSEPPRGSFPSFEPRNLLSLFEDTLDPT
Description: AlphaLISA assay, Myt1 kinase target engagement (phospho-CDK1 Thr14) in ACHN cells. The test is classed as cell-based. To be noted: ACHN cells (marked *); 4 h treatment. The method, then:
Each of an ACHN renal cell carcinoma cell line (ATCC) and a DAOY medulloblastoma cell line, and an A427 lung cancer line were cultured in Minimum Essential Medium Eagle supplemented with 10% fetal calf serum (Sigma), 1% Penicillin-Streptomycin and 10 mM HEPES buffer (HyClone). Cell cultures were kept in a humidified incubator at 37 °C and 5% CO2. Cells were routinely tested for Mycoplasma contamination.
For target engagement assessment of Myt1 kinase inhibition, quantification of Cdk1 phosphorylated on threonine 14 was detected using the AlphaLISA® SureFire® Ultra™ Human Phospho-CDK1 (Thr14) assay (Perkin Elmer). DAOY or ACHN cells were seeded into tissue culture treated 96-well plates (VWR) to a density of 10,000 or 20,000 cells per well respectively. 24 h post seeding cells were treated for 4 h with compounds at concentrations ranging from 7 to 5000 nM. Cells were washed with PBS and lysed in 50 μl AlphaLISA lysis buffer before freezing at −80 C. Ten ul of the lysate was transferred to 384 well plates and incubated with AlphaLISA donor and acceptor beads according to the manufacturer's instructions. Dose response curves and EC50 values were calculated and visualized using GraphPad Prism version 9. Target engagement for Myt1 kinase can also be measured using the same AlphaLISA assay in OVCAR3 cells, an ovarian cancer cell line. NIH:OVCAR-3 (OVCAR3) cells are cultured in RPMI-1640 medium supplemented with 0.01 mg/ml insulin, 20% FBS, 1% Penicillin-Streptomycin and 10 mM HEPES buffer. 14,000 cells per well are seeded into 96 well tissue culture plates in full medium. Twenty-four hours post seeding, cells are treated with compound for 4 hours at concentrations ranging from 0.017 nM to 1000 nM.

In test [2] the target is T2, recombinant human Wee1A kinase (Homo sapiens, UniProt P30291).
T2 construct: full length Wee1 kinase was expressed by baculovirus in insect cells; purchased Invitrogen PV3817; host or cells: insect cells (baculovirus)
T2 sequence (P30291 whole entry): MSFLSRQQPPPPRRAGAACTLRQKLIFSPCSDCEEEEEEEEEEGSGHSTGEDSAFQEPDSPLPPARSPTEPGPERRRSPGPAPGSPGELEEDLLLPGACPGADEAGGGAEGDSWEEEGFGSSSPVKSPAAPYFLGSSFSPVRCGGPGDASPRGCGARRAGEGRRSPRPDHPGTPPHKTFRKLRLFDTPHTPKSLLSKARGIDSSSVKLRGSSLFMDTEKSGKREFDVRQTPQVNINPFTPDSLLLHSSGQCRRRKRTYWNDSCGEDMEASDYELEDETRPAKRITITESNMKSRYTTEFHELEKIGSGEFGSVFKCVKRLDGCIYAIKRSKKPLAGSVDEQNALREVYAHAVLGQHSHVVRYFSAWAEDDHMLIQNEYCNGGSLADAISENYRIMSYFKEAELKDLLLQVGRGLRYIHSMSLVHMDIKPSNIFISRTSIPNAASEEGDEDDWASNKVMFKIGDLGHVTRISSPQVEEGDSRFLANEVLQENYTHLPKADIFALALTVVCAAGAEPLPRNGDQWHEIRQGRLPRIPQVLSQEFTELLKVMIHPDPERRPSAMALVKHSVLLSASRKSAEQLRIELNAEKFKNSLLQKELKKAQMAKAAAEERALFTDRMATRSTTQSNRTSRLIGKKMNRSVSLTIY
Description: Wee1A kinase binding assay (LanthaScreen Eu time-resolved FRET). The note with it: 30 nM tracer 178, 5 nM Wee1A kinase, 2 nM Eu-labeled antibody; 60 minutes at room temperature; read-out: Wee1A kinase Binding IC50. An outline of the steps: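 Full-length, baculovirus-expressed GST-tagged Wee1A (5 nM) was mixed with 2 nM Eu-anti-GST antibody, 30 nM kinase tracer 178 and compound (1% DMSO). Buffer was 50 mM HEPES pH 7.5, 10 mM MgCl2, 1 mM EGTA, 0.01% Brij-35, incubated 60 min at room temperature. TR-FRET 665/615 nm emission ratios from duplicates were curve-fitted.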

For test [3], the target named is T3, Myt1 kinase (recombinant PMYT-1) (Homo sapiens, UniProt Q99640).
T3 construct: full length PMYT-1 was expressed by baculovirus in insect cells; purchased Invitrogen A30984; host or cells: insect cells (baculovirus)
T3 sequence (Q99640 1-499): T1 sequence (Q99640 1-499)
Briefly: Myt1 kinase binding assay (LanthaScreen Eu Kinase Binding Assay). The note with it: 3 nM tracer 178, 2.5 nM PMYT-1, 1 nM Eu-labeled antibody; read-out: Myt1 kinase Binding IC50. A digest of the protocol:
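The binding affinity of compounds for Myt1 kinase was measured with a LanthaScreen Europium (Eu) Kinase Binding Assay, a time-resolved FRET format in which test compounds compete against a labeled kinase tracer, and the results were expressed as IC50 values describing compound binding to Myt1.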

In test [4] the target is T4, Wee1A kinase (CDK1 Tyr15 phosphorylation in ACHN renal cell carcinoma cells) (Homo sapiens, UniProt P30291).
T4 construct: pCDK1 Tyr15 immunofluorescence read-out
T4 sequence (P30291 whole entry): as above
Briefly: High-content imaging of pCdk1 Y15, Wee1A kinase target engagement in ACHN cells. The test is classed as cell-based. The note with it: 4 h treatment, nuclear positivity for pCdk1 Y15 vs DMSO control, read-out: CDK1 Tyr15 Phosphorylation EC50. An outline of the steps: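 ACHN cells exposed to compound for 4 h over 7–5,000 nM or 0.3–200 nM, then fixed and immunostained for pCDK1 Y15 with DAPI nuclear counterstain. The percentage of pCdk1 Y15 nucleus-positive cells relative to DMSO control was imaged per well; EC50 from dose-response curves.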

The test system of a further test is ACHN cells. Description: Cell Titer Glo viability assay, ACHN cells. The test is classed as cell-based. The note with it: Homo sapiens, 144 h, absolute EC50. An outline of the steps:
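Cells grown in MEM with 10% FCS were seeded at 500 (A427), 400 (ACHN) or 250 (DAOY) per well and treated the next day with compound at 17 to 10 000 nM. Viability relative to untreated control was read at 144 h by CellTiter-Glo 2.0.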

Test [5] deals with T5, Myt1 kinase (CDK1 Thr14 phosphorylation in DAOY medulloblastoma cells) (Homo sapiens, UniProt Q99640).
T5 construct: pCDK1 Thr14 AlphaLISA read-out
T5 sequence (Q99640 1-499): T1 sequence (Q99640 1-499)
Briefly: AlphaLISA assay, Myt1 kinase target engagement (phospho-CDK1 Thr14) in DAOY cells. The test is classed as cell-based. The note with it: 4 h treatment, read-out: CDK1 Thr14 Phosphorylation EC50. An outline of the steps: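 Cells seeded at 10,000 (DAOY) or 20,000 (ACHN) per well, treated 24 h later for 4 h with compound at 7–5000 nM. Lysates analysed by AlphaLISA SureFire Ultra phospho-CDK1 (Thr14) with donor/acceptor beads; EC50 from dose-response curves.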

For the compound `[2H]C([2H])([2H])N1CCC(Oc2nccc(-n3c4nc(Nc5ccc6c(cnn6C)c5)ncc4c(=O)n3CC=C)n2)CC1` [Compound 383, 2-allyl-6-(1-methyl-1H-indazol-5-ylamino)-1-(2-{1-[(^2H3)methyl]-4-piperidyloxy}-4-pyrimidinyl)-1,2-dihydro-3H-1,2,5,7-tetraazainden-3-one], the EC50 in test [1] is 500 to 1000 nM. In addition, the values for the IC50 in test [2] and in test [3] were below 10 nM and 20 to 100 nM, respectively.

As to `C=CCn1c(=O)c2cnc(Nc3ccc4nn(C(C)(C)C)cc4c3)nc2n1-c1cccc(OC2CCNCC2)n1` [Compound 395, 2-allyl-6-((2-(tert-butyl)-2H-indazol-5-yl)amino)-1-(6-(piperidin-4-yloxy)pyridin-2-yl)-1,2-dihydro-3H-pyrazolo[3,4-d]pyrimidin-3-one], the concentration giving a half-maximal response (EC50) in test [1] is above 1000 nM; in test [4], below 100 nM. Further, the IC50 in test [2] was below 10 nM; in test [3], below 20 nM.

For `C=CCn1c(=O)c2cnc(Nc3ccc4c(cnn4C)c3)nc2n1-c1cccc(OC2CCCN(C)CC2)n1` (centres unmarked) [Compound 361], the EC50 in test [1] is 200 to 500 nM; with ACHN cells it was at most 100 nM; in test [4], below 100 nM. Further, the IC50 in test [2] is below 10 nM.

Regarding `C=CCn1c(=O)c2cnc(Nc3ccc4ccncc4c3)nc2n1-c1cccc(OC2CCN(C)CC2)n1` [Compound 326, 2-allyl-6-(7-isoquinolylamino)-1-[6-(1-methyl-4-piperidyloxy)-2-pyridyl]-1,2-dihydro-3H-1,2,5,7-tetraazainden-3-one], the EC50 was 200 to 500 nM in test [1] and below 100 nM in test [4]. Moreover, the half-inhibitory concentration (IC50) in test [2] was below 10 nM; in test [3], 20 to 100 nM.

For the compound `C=CCn1c(=O)c2cnc(Nc3ccc4c(cnn4C(C)C)c3)nc2n1-c1ccnc(OC2CCN(C)CC2)n1` [Compound 401, 2-allyl-6-((1-isopropyl-1H-indazol-5-yl)amino)-1-(2-((1-methylpiperidin-4-yl)oxy)pyrimidin-4-yl)-1,2-dihydro-3H-pyrazolo[3,4-d]pyrimidin-3-one], the half-maximal effective concentration (EC50) in test [1] was below 200 nM; in test [4] it was below 100 nM. For the same compound, the figures for the IC50 in test [2] and in test [3] were below 10 nM and below 20 nM, respectively.

Turning to `C=CCn1c(=O)c2cnc(Nc3cnc4c(cnn4C(C)C)c3)nc2n1-c1cccc(OC2CCN(C)CC2)n1` [Compound 406, 2-allyl-6-((1-isopropyl-1H-pyrazolo[3,4-b]pyridin-5-yl)amino)-1-(6-((1-methylpiperidin-4-yl)oxy)pyridin-2-yl)-1,2-dihydro-3H-pyrazolo[3,4-d]pyrimidin-3-one], the concentration giving a half-maximal response (EC50) is below 200 nM in test [1] and below 100 nM in test [4]. For the same compound, the half-maximal inhibitory concentration (IC50) is below 10 nM in test [2] and below 20 nM in test [3].

As for `C=CCn1c(=O)c2cnc(Nc3ccc(Br)cc3)nc2n1-c1cccc(OC2CCN(C)CC2)n1` [Compound 370, 2-allyl-6-(p-bromophenylamino)-1-[6-(1-methyl-4-piperidyloxy)-2-pyridyl]-1,2-dihydro-3H-1,2,5,7-tetraazainden-3-one], the concentration giving a half-maximal response (EC50) is 200 to 500 nM in test [1] and below 100 nM in test [4]. The IC50 in test [2] is below 10 nM; in test [3] it was below 20 nM.

In the case of `C=CCn1c(=O)c2cnc(Nc3ccc4c(cnn4C)c3)nc2n1-c1cccc(OC2CCCN(C)CC2)n1` (single isomer, unassigned) [Compound 374], the figures for the EC50 in test [1] and in test [4] were 500 to 1000 nM and below 100 nM, respectively. The 50% inhibitory concentration (IC50) was below 10 nM in test [2] and 20 to 100 nM in test [3].

On to `C=CCn1c(=O)c2cnc(Nc3ccc(OCCF)nc3)nc2n1-c1cccc(OC2CCN(C)CC2)n1` [Compound 399, 2-allyl-6-((6-(2-fluoroethoxy)pyridin-3-yl)amino)-1-(6-((1-methylpiperidin-4-yl)oxy)pyridin-2-yl)-1,2-dihydro-3H-pyrazolo[3,4-d]pyrimidin-3-one], for which the EC50 was below 200 nM in test [1] and below 100 nM in test [4]. Also, the figures for the IC50 in test [2] and in test [3] were below 10 nM and below 20 nM, respectively.

Regarding `C=CCn1c(=O)c2cnc(Nc3ccc4[nH]nc(C)c4c3)nc2n1-c1cccc(OC2CCN(C)CC2)n1` [Compound 355, 2-allyl-6-((3-methyl-1H-indazol-5-yl)amino)-1-(6-((1-methylpiperidin-4-yl)oxy)pyridin-2-yl)-1,2-dihydro-3H-pyrazolo[3,4-d]pyrimidin-3-one], the EC50 in test [1] was 200 to 500 nM; in test [4], below 100 nM. In addition, the IC50 in test [2] was below 10 nM; in test [3], below 20 nM.

Consider `C=CCn1c(=O)c2cnc(Nc3ccc(OCC)cc3)nc2n1-c1cccc(OC2CCN(C)CC2)n1` [Compound 255, 2-allyl-6-((4-ethoxyphenyl)amino)-1-(6-((1-methylpiperidin-4-yl)oxy)pyridin-2-yl)-1,2-dihydro-3H-pyrazolo[3,4-d]pyrimidin-3-one], for which the IC50 in test [2] is below 10 nM; in test [3], below 20 nM. In addition, the EC50 was 200 to 500 nM in test [5], at most 100 nM with ACHN cells and below 100 nM in test [4].

Take `C=CCn1c(=O)c2cnc(Nc3ccc4cnn(C)c4c3)nc2n1-c1cccc(OC2CCN(C)CC2)n1` [Compound 389, 2-allyl-6-((1-methyl-1H-indazol-6-yl)amino)-1-(6-((1-methylpiperidin-4-yl)oxy)pyridin-2-yl)-1,2-dihydro-3H-pyrazolo[3,4-d]pyrimidin-3-one]: the figures for the EC50 in test [1] and in test [4] were below 200 nM and below 100 nM, respectively. In addition, the half-maximal inhibitory concentration (IC50) in test [2] was below 10 nM; in test [3] it was 20 to 100 nM.

Regarding `C=CCn1c(=O)c2cnc(Nc3ccc4c(c3)ncn4C)nc2n1-c1cccc(OC2CCNCC2)n1` [Compound 319, 2-allyl-6-((1-methyl-1H-benzo[d]imidazol-5-yl)amino)-1-(6-(piperidin-4-yloxy)pyridin-2-yl)-1,2-dihydro-3H-pyrazolo[3,4-d]pyrimidin-3-one], the IC50 in test [2] was below 10 nM; in test [3] it was 20 to 100 nM. Moreover, the values for the EC50 (in test [5]; with ACHN cells; in test [4]) were above 1000 nM, 500 to 1000 nM and 100 to 500 nM, respectively.
